Experiment [1] has as its system T1, PC12 (TrkA & p75).
T1 construct: other: Concentration 25 μM; PC12 cells; other: Concentration 50 μM; other: PC12 cells; 125I-NGF ~0.11 nM; other: PC12 cells expressing TrkA and p75; individual experiment; fused on or other part: 125I label on NGF
In words: 125I-NGF binding displacement in PC12 cells. On the set-up: species or system rat. The note with it: for PC12 (TrkA & p75) Single point (% max binding) Mean: PC12 cells; for NGF binding displacement, dose-response curve: PC12 cells expressing TrkA and p75, individual experiment. The method, then: (§1) All cells were incubated at 37° C. in 5% CO2. PC12 cells were maintained in RPMI-1640 medium supplemented with 10% fetal bovine serum (FBS). A875 human melanoma cells were maintained in DMEM with 10% FBS. HEK 293 cells were stably transfected with human TrkA plasmid (see below) and maintained in DMEM with 10% FBS and G418 (600 μg/mL) for selection.
(§2) NGF binding was evaluated using methods familiar to those who are skilled in the art. Briefly, cells expressing one or both NGF receptors (PC12: TrkA+p75; A875: p75 alone; HEK_TrkA: TrkA alone) were harvested by replacing the medium with calcium-magnesium free balanced salt (Grey's) solution and incubating at 37° C. for 15 min. For NGF binding, cells were resuspended at a concentration of 2×10^6 cells/mL in HEPES-Krebs-Ringer (HKR) buffer (10 mM HEPES; 125 mM NaCl; 4.8 mM KCl; 1.3 mM CaCl2; 1.2 mM MgSO4; 1.2 mM KH2PO4; 1 mg/ml BSA; 1 mg/ml glucose; pH 7.4) and exposed to ^125I-NGF (˜0.11 nM) in the presence or absence of varying concentrations of the compound. Non-specific binding was determined for reference by incubating ^125I-NGF with an excess of non-radioactive NGF in the absence of compound. Following a two-hour incubation period at 4° C., ^125I-NGF bound to the cells was quantified in a gamma radiation counter following separation from unbound NGF by filtration or centrifugation through glycerol (10% in HKR). Inhibition of binding was calculated as a percent of the specific binding (calculated as the differential between ^125I-NGF binding in the absence and presence of an excess of non-radioactive NGF without compound). Dose-response inhibition curves were typically generated with seven concentrations of a given compound, with three replicates for each concentration. For most compounds, multiple dose-response curves were generated.

Another experiment relates to Mice. In words: Writhing Test (acetic acid abdominal contraction test). It counts as in vivo, mouse. The note with it: 100 mg/kg i.p., 30 minutes following acetic acid, vehicle 57±1. As for the experimental part: The acetic acid abdominal contraction test (Martinez et al., Pain 1999; 81: 179) was used to determine the efficacy of different compounds in a model of acute visceral chemical nociception. […] Compound or vehicle was administered (i.p. or s.c.) 15-45 minutes prior to the acetic acid injection. Each episode of writhing is characterized by a lengthwise stretching of the torso with a concomitant arching of the back.
Statistical analysis was performed using Prism™ 4.01 software package (GraphPad, San Diego, Calif., USA). The difference in response levels between treatment groups and control vehicle group was analyzed using an ANOVA followed by Bonferroni's method for post-hoc pair-wise comparisons. A p value <0.05 was considered to be significant.
On the technique in general: In writhing tests, fewer writhes than in controls are read as antinociception.

Another experiment relates to PC12 cells. In words: NGF-induced neurite outgrowth in PC12 cells. It counts as cell-based, rat. The note with it: 4 days of exposure to NGF. As for the experimental part: This assay was run as a further functional marker of NGF antagonism and takes advantage of the differentiation of PC12 cells (neurite outgrowth) induced by NGF. Cultures of PC12 cells were grown on Terasaki plates pre-coated with poly-D-lysine. Cells were exposed to NGF (1-50 (preferably 5) ng/ml) to induce neurite outgrowth as described elsewhere [L A Greene & A S Tischler, Establishment of a noradrenergic clonal line of rat adrenal pheochromocytoma cells which respond to nerve growth factor, Proc Natl Acad Sci USA. 1976 July; 73(7): 2424-2428]. In addition to NGF, cells were exposed to varying concentration of the compounds or vehicle. Following 4 days of exposure to NGF in the presence or absence of compound, neurite outgrowth was quantified. A neurite was scored if its caliber from origin to terminal was approximately the same and the length was equal to or greater than 1.5 the cell body diameter. The number of neurite bearing cells per total number of viable cells was calculated for each condition; the number of cells with neurites in the presence of NGF (without compound exposure) was considered to represent maximal (100%) outgrowth, to which the inhibitory effect of compounds of the invention on NGF-induced outgrowth was compared.

In another experiment the test system is Male Sprague-Dawley rats. In words: Spared Nerve Injury (SNI) model of neuropathic pain. It counts as in vivo, rat. The note with it: Von Frey filaments, 90 min post-treatment, Compound 11 3 and 10 mg/kg i.p., Compound 107 20 mg/kg i.p. An excerpt: The Spared Nerve Injury (SNI) model (Decosterd et al., Pain 2000; 87: 149) was used to induce chronic neuropathic pain. Male Sprague-Dawley rats were anesthetized with isoflurane, and two of the three terminal branches of the sciatic nerve (tibial and common peroneal nerves) were transected, leaving the remaining sural nerve intact. Animals develop thermal and mechanical hyperalgesia and allodynia, as well as spontaneous pain or dysesthesia that last month after the nerve injury.
Mechanical allodynia testing: Pre- and post-injury baselines as well as post-treatment values (vehicle or compound-treated animals) for mechanical allodynia were evaluated using Von Frey filaments (Stoelting, Wood Dale, Ill., USA) with varying stiffness. […] The mean and standard error of the mean (SEM) were determined for each paw in each treatment group (ipsilateral/injured paw and contralateral/non-injured paw). […] Effects of compounds were evaluated two weeks after the injury. Compound or vehicle was administered (i.p. or s.c.) and effects on mechanical allodynia were measured at different time points after dosing (e.g., 30, 60 and 90 min.).
Data analysis: Statistical analyses were conducted using Prism™ 4.01 (GraphPad, San Diego, Calif., USA). Mechanical hypersensitivity of the injured paw was determined by comparing contralateral to ipsilateral paw values within the vehicle group at each time point. […]

A further experiment has as its system A875: p75 alone. The experiment is described as follows: 125I-NGF binding displacement in A875 cells. On the set-up: species or system human. The note with it: A875 cells expressing p75; individual experiment. As for the experimental part: as §1, §2
Experiment [2] concerns T2, PC12 (TrkA & p75).
T2 construct: other: PC12, A875 an; fused on or other part: 125I label on NGF
In words: 125I-NGF binding displacement in PC12 cells. Details: species or system rat. The note with it: PC12, A875 and HEK_TrkA cells taken together. As for the experimental part: as §1, §2

The test system of experiment [3] is HEK_TrkA: TrkA alone (human TrkA). The experiment is described as follows: 125I-NGF binding displacement in HEK_TrkA cells. The note with it: individual experiment. As for the experimental part:
as §1
Expression of human TrkA in HEK cells was achieved by transfecting the cells with the TrkA expression vector using Lipofectamine (Invitrogen) reagent. HEK cells were plated in 100 mm Petri dishes at a concentration of 10^6 cells per dish. The next day, a solution of DNA diluted in 1 mL OptiMEM (Invitrogen) per dish was prepared and incubated for 15 min at room temperature. […]
NGF binding was evaluated using methods familiar to those who are skilled in the art. […] Non-specific binding was determined for reference by incubating ^125I-NGF with an excess of non-radioactive NGF in the absence of compound. Following a two-hour incubation period at 4° C., ^125I-NGF bound to the cells was quantified in a gamma radiation counter following separation from unbound NGF by filtration or centrifugation through glycerol (10% in HKR). Inhibition of binding was calculated as a percent of the specific binding (calculated as the differential between ^125I-NGF binding in the absence and presence of an excess of non-radioactive NGF without compound). […]

Results on 13 compounds are retold here after US7579468B2, “Methods of modulating neurotrophin-mediated activity” (PainCeptor Pharma Corporation, priority 2005, dated 2009).

“Also recorded” adds a separate entry of the source.

With `NNC(=O)NN1C(=O)c2cc(S(=O)(=O)[O-])cc3c(N)c(S(=O)(=O)[O-])cc(c23)C1=O.[K+].[K+]` [Compound 52, 6-Amino-1,3-dioxo-2-amino-ureido-2,3-dihydro-1H-benzo[de]isoquinoline-5,8-disulfonic acid-di-potassium salt], in the experiment with PC12 (TrkA & p75) [1] (Concentration 50 μM), the “PC12 (TrkA & p75) Single point (% max binding) Mean” value (“PC12 … (% max binding) Mean” for short) was “* (* >50)”.

Turning to `O=C(O)CCCN1C(=O)c2cccc3cc([N+](=O)[O-])cc(c23)C1=O` [Compound 63, 4-(5-Nitro-1,3-dioxo-1H,3H-benzo[de]isoquinolin-2-yl)-butyric acid], in the experiment with Mice, the “Number of abdominal contractions (writhing)” value is 9±3.

Turning to `O=C(O)CCCN1C(=O)c2cc(Br)cc3cc([N+](=O)[O-])cc(c23)C1=O` [Compound 89, 4-(5-Bromo-8-nitro-1,3-dioxo-1H,3H-benzo[de]isoquinolin-2-yl)-butyric acid], in the experiment with PC12 (TrkA & p75) [1] (Concentration 50 μM), the “PC12 … (% max binding) Mean” value is given as “** (30 < ** <50)”.

For `NC(=O)c1cc2c3c(cccc3c1)C(=O)N(CCCC(=O)O)C2=O` [Compound 95, 4-(5-Carbamoyl-1,3-dioxo-1H,3H-benzo[de]isoquinolin-2-yl)-butyric acid], in the experiment on PC12 cells, the “Inhibition of NGF-induced neurite outgrowth” value (from here on “Inhibition”) is given as “effectively inhibits neurite outgrowth induced by NGF”.

As for `O=C(O)CCCN1C(=O)c2cccc3c(C(=O)c4ccccc4)ccc(c23)C1=O` [Compound 99, 4-(6-Benzoyl-1,3-dioxo-1H,3H-benzo[de]isoquinolin-2-yl)-butyric acid], the “PC12 … (% max binding) Mean” value in the experiment on PC12 (TrkA & p75) [1] (Concentration 25 μM) is “*** (* < *** <30)”.

Turning to `O=C(O)CCCN1C(=O)c2cccc3c(C(=O)O)ccc(c23)C1=O` [Compound 100, 2-(3-Carboxy-propyl)-1,3-dioxo-2,3-dihydro-1H-benzo[de]isoquinoline-6-carboxylic acid], the “PC12 … (% max binding) Mean” value in the experiment with PC12 (TrkA & p75) [1] (Concentration 25 μM) is listed as “*** (* < *** <30)”.

As for `O=C1Nc2ccc([N+](=O)[O-])c3cccc1c23` [Compound 103, 6-Nitro-1H-benzo[cd]indol-2-one], the “PC12 … (% max binding) Mean” value in the experiment with PC12 (TrkA & p75) [1] (Concentration 25 μM) is on record as “* (* >50)”.

For the compound `O=C(O)CCCN1C(=O)c2cccc3c(Cl)ccc(c23)C1=O` [Compound 104, 4-(6-Chloro-1,3-dioxo-1H,3H-benzo[de]isoquinolin-2-yl)-butyric acid], the “PC12 … (% max binding) Mean” value in the experiment with PC12 (TrkA & p75) [1] (Concentration 25 μM) is recorded as “** (30 < ** <50)”.

On to `CC(=O)Nc1cc2c3c(cc(NC(C)=O)cc3c1)C(=O)N(CCCS(=O)(=O)O)C2=O` [Compound 107, 3-(5,8-Bis-acetylamino-1,3-dioxo-1H,3H-benzo[de]isoquinolin-2-yl)-propane-1-sulfonic acid], for which, in the experiment on Male Sprague-Dawley rats, the “Effect on mechanical allodynia in the SNI model” value is “significant dose-dependent reversal of the mechanical allodynia; also recorded: significant antinociceptive effects”. Further, the “NGF binding displacement, dose-response curve” value in the experiment on A875: p75 alone is “effectively blocks NGF binding to cells expressing p75”; in the experiment with PC12 (TrkA & p75) [1] it was “effectively blocks NGF binding to cells expressing TrkA and p75”; in experiment [3], “effectively blocks NGF binding to cells expressing TrkA”. In the experiment with PC12 (TrkA & p75) [2], the “Block of NGF binding to TrkA and/or p75 (summary of FIGS. 1B, 2A, 2B, 4A, 4B, 6A, 6B, 7A, 8A, 8B)” value is listed as “effectively block NGF binding to TrkA and/or p75”. In addition, in the experiment on PC12 cells, the “Inhibition” value is recorded as “effectively inhibits neurite outgrowth induced by NGF”.

For `CN(C)S(=O)(=O)c1ccc2c3c(cccc13)C(=O)N(CCCC(=O)O)C2=O` [Compound 112, 4-(6-Dimethylsulfamoyl-1,3-dioxo-1H,3H-benzo[de]isoquinolin-2-yl)-butyric acid], the “PC12 … (% max binding) Mean” value with PC12 (TrkA & p75) [1] (Concentration 50 μM) is on record as “*** (* < *** <30)”.

Consider `O=C(O)CCCN1C(=O)c2cccc3c(S(=O)(=O)N4CCOCC4)ccc(c23)C1=O` [Compound 113, 4-[6-(Morpholine-4-sulfonyl)-1,3-dioxo-1H,3H-benzo[de]isoquinolin-2-yl]-butyric acid], for which the “PC12 … (% max binding) Mean” value with PC12 (TrkA & p75) [1] (Concentration 50 μM) is on record as “** (30 < ** <50)”.

Regarding `CN(C)S(=O)(=O)c1cc2c3c(cccc3c1)C(=O)N(CCCC(=O)O)C2=O` [Compound 114, 4-(5-Dimethylsulfamoyl-1,3-dioxo-1H,3H-benzo[de]isoquinolin-2-yl)-butyric acid], the “PC12 … (% max binding) Mean” value in the experiment with PC12 (TrkA & p75) [1] (Concentration 50 μM) was “** (30 < ** <50)”.

Regarding `N#Cc1cc2c3c(cccc3c1)C(=O)N(CCCC(=O)O)C2=O` [Compound 124, 4-(5-Cyano-1,3-dioxo-1H,3H-benzo[de]isoquinolin-2-yl)-butyric acid], the “NGF binding displacement, dose-response curve” value in the experiment with A875: p75 alone is “effectively blocks NGF binding to cells expressing p75”; in the experiment on PC12 (TrkA & p75) [1] it was “effectively blocks NGF binding to cells expressing TrkA and p75”. Further, in the experiment with PC12 (TrkA & p75) [2], the “Block of NGF binding to TrkA and/or p75 (summary of FIGS. 1B, 2A, 2B, 4A, 4B, 6A, 6B, 7A, 8A, 8B)” value was “effectively block NGF binding to TrkA and/or p75”. For the same compound, the “Inhibition” value in the experiment with PC12 cells is “effectively inhibit neurite outgrowth induced by NGF”.
